Read-outs that look alike come from different tables or passages of the source.

The conditions of data set [1]: hepatocytes.
For data set [2] the following is noted: mouse, hepatocytes.
The conditions of data set [3]: mouse, hepatocytes. The source holds these as a separate data set.
The subject of the next data set is CYP. The conditions noted are these: cited from earlier work.
For data set [4] the following is noted: microsomes.
A short description of data set [5]: Oral pharmacokinetics in WT mice. The conditions noted are these: female, mouse, whole blood.
The conditions of data set [6]: human, 100 mg BID; ref SI 8; cited from earlier work.
The nature of data set [7]: Oral pharmacokinetics in 8HUM mice. The conditions noted are these: female, mouse, whole blood.
The conditions of data set [8]: mouse, microsomes.
For data set [9] the following is noted: mouse, microsomes. This is another data set of the same source.
For data set [10] the following is noted: mouse, microsomes. This is another data set of the same source.
In a further data set the test system is M. tuberculosis H37Rv. In words: Acute M. tuberculosis infection efficacy model in 8HUM (lung CFU). Format: in vivo, Mycobacterium tuberculosis. The conditions noted are these: 8HUM, day 9, 30 mg/kg QD.

As for `CCOc1ccc2ccc(=O)oc2c1` [7-ethoxycoumarin], the “CLint, Human” value in [1] is on record as 8.2 mL/min/g liver. For the same molecule, the “CLint, 8HUM” value in data set [2] stood at 13.8 mL/min/g liver. The “CLint, WT” value in [3] was determined as 39 mL/min/g liver.

Turning to `CC1(C)S[C@@H]2[C@H](NC(=O)[C@H](N)c3ccc(O)cc3)C(=O)N2[C@H]1C(=O)O` [Amoxicillin], the “CYP interaction: Inhibitor” value in the data set on CYP is recorded as 2C19.

`CC(C)CN(C[C@@H](O)[C@H](Cc1ccccc1)NC(=O)O[C@H]1CCOC1)S(=O)(=O)c1ccc(N)cc1` [Amprenavir]: the “CYP interaction: Inhibitor” value with CYP is 3A4.

Take `CO[C@H]1O[C@@H]2O[C@@]3(C)CC[C@H]4[C@H](C)CC[C@@H]([C@H]1C)[C@@]24OO3` [Artemether]: the “CYP interaction: Inhibitor” value in the data set on CYP is on record as 3A4.

On to `CC[C@H]1OC(=O)[C@H](C)[C@@H](O[C@H]2C[C@@](C)(OC)[C@@H](O)[C@H](C)O2)[C@H](C)[C@@H](O[C@@H]2O[C@H](C)C[C@H](N(C)C)[C@H]2O)[C@](C)(OC)C[C@@H](C)C(=O)[C@H](C)[C@@H](O)[C@]1(C)O` [Clarithromycin], for which the “CLint, Human” value in data set [4] came to 1.4 mL/min/g liver. Also, the “CYP interaction: Substrate” value in the data set on CYP is recorded as 3A4.

As to `C[C@]1(COc2ccc(N3CCC(Oc4ccc(OC(F)(F)F)cc4)CC3)cc2)Cn2cc([N+](=O)[O-])nc2O1` [Delamanid], in data set [5], the CL/F (in general, the apparent clearance, not corrected for the fraction that reaches the circulation) was 110 mL/min/kg. In [6], the “apparent volume of distribution (V/F)” value is listed as 11.9 L/kg and the “oral clearance (CL/F)” value was 9.12 mL/min/kg. Besides, the “CLint, Human” value in data set [4] is recorded as 0.8 mL/min/g liver. In data set [7], the CL/F was 20.7 mL/min/kg.

Consider `O=C(O)Cc1ccccc1Nc1c(Cl)cccc1Cl` [Diclofenac], for which, in data set [2], the “CLint, 8HUM” value turned out to be 1.8 mL/min/g liver.

Turning to `CC[C@H]1OC(=O)[C@H](C)[C@@H](O[C@H]2C[C@@](C)(OC)[C@@H](O)[C@H](C)O2)[C@H](C)[C@@H](O[C@@H]2O[C@H](C)C[C@H](N(C)C)[C@H]2O)[C@](C)(O)C[C@@H](C)C(=O)[C@H](C)[C@@H](O)[C@]1(C)O` [Erythromycin], the entries for the “CLint, Human” value in [1] and in data set [4] were 0.5 mL/min/g liver and 3.3 mL/min/g liver, respectively. Moreover, the “CLint, 8HUM” value in data set [2] was determined as 0.5 mL/min/g liver. Further, the “CLint, WT” value in [3] is recorded as 1.3 mL/min/g liver.

`Cc1cc(C#N)cc(C)c1Oc1nc(Nc2ccc(C#N)cc2)nc(N)c1Br` [Etravirine]: the “CLint, Human” value in data set [4] stood at 1 mL/min/g liver.

`CCCCN(CCCC)CCC(O)c1cc2c(Cl)cc(Cl)cc2c2cc(C(F)(F)F)ccc12` (stereo not drawn) [Halofantrine]: the “CLint, Human” value in [4] is on record as 1.7 mL/min/g liver. In the data set on CYP, the “CYP interaction: Substrate” value is 3A4.

For the molecule `CC(=O)NC[C@H]1CN(c2ccc(N3CCOCC3)c(F)c2)C(=O)O1` [Linezolid], the “CLint, 8HUM” value in [8] and in [2] was 0.5 mL/min/g liver in each case. The “CYP interaction: Substrate” value with CYP is reported as 3A4. Moreover, the “CLint, WT” value in [9] is listed as 0.5 mL/min/g liver. For the same molecule, in data set [10], the “CLint, CypC4KO” value was determined as 0.5 mL/min/g liver.

As for `OC(c1cc(C(F)(F)F)nc2c(C(F)(F)F)cccc12)C1CCCCN1` (stereo not drawn) [Mefloquine], the “CLint, Human” value in [1] and in data set [4] was 0.5 mL/min/g liver in each case. Further, the “CLint, 8HUM” value in data set [2] stood at 0.5 mL/min/g liver. In addition, in data set [3], the “CLint, WT” value turned out to be 0.5 mL/min/g liver. Further, the “CLint, CypC4KO” value in data set [10] was 0.5 mL/min/g liver.

Take `CO[C@H]1C[C@H](O[C@H]2[C@H](C)[C@@H](O[C@@H]3O[C@H](C)C[C@H](N(C)C)[C@H]3O)[C@@H](C)C[C@@]3(CO3)C(=O)[C@H](C)[C@@H](O)[C@@H](C)[C@@H](C)OC(=O)[C@@H]2C)O[C@@H](C)[C@@H]1O` [Oleandomycin]: the “CLint, Human” value in [4] is listed as 18.5 mL/min/g liver. For the same molecule, in the data set on CYP, the “CYP interaction: Inhibitor” value is 3A4. Further, in [10], the “CLint, CypC4KO” value is given as 50 mL/min/g liver.

Consider `CCOc1ccc(NC(C)=O)cc1` [Phenacetin], for which, in data set [2], the “CLint, 8HUM” value came to 1.3 mL/min/g liver.

As to `CC[C@@H]([C@H](C)O)n1ncn(-c2ccc(N3CCN(c4ccc(OC[C@@H]5CO[C@@](Cn6cncn6)(c6ccc(F)cc6F)C5)cc4)CC3)cc2)c1=O` [Posaconazole], the “CLint, 8HUM” value in data set [8] is 0.5 mL/min/g liver. Also, in data set [4], the “CLint, Human” value was determined as 0.5 mL/min/g liver. The “CLint, WT” value in data set [9] is 0.5 mL/min/g liver.

Turning to `[H]/N=C(\N/C(=N/[H])Nc1ccc(Cl)cc1)NC(C)C` [Proguanil], the “CLint, 8HUM” value in data set [8] worked out at 0.5 mL/min/g liver. In addition, the “CLint, Human” value in data set [4] was determined as 0.3 mL/min/g liver. Besides, the “CYP interaction: Substrate” value in the data set with CYP is recorded as 2C19. The “CLint, WT” value in data set [9] worked out at 0.5 mL/min/g liver.

On to `C=C[C@H]1C[N@@]2CC[C@H]1C[C@@H]2[C@@H](O)c1ccnc2ccc(OC)cc12` [Quinidine], for which the “CYP interaction: Inhibitor” value with CYP is recorded as 2D6.

Regarding `CO[C@H]1/C=C/O[C@@]2(C)Oc3c(C)c(O)c4c(O)c(c(/C=N/N5CCN(C)CC5)c(O)c4c3C2=O)NC(=O)/C(C)=C\C=C\[C@H](C)[C@H](O)[C@@H](C)[C@@H](O)[C@@H](C)[C@H](OC(C)=O)[C@@H]1C` [Rifampicin], the “CLint, Human” value in data set [4] amounted to 0.8 mL/min/g liver.

For the molecule `CO[C@H]1/C=C/O[C@@]2(C)Oc3c(C)c(O)c4c(O)c(c(/C=N/N5CCN(C6CCCC6)CC5)c(O)c4c3C2=O)NC(=O)/C(C)=C\C=C\[C@H](C)[C@H](O)[C@@H](C)[C@@H](O)[C@@H](C)[C@H](OC(C)=O)[C@@H]1C` [Rifapentine], the “CYP interaction: Inducer” value in the data set on CYP is 2C8, 2C9.

Regarding `CC(C)c1nc(CN(C)C(=O)N[C@H](C(=O)N[C@@H](Cc2ccccc2)C[C@H](O)[C@H](Cc2ccccc2)NC(=O)OCc2cncs2)C(C)C)cs1` [Ritonavir], the “CLint, Human” value in data set [4] came to 6.6 mL/min/g liver.

For the molecule `C[C@H](Cn1cnc2c(N)ncnc21)OCP(=O)(O)O` [Tenofovir], the “CYP interaction: Substrate” value in the data set with CYP is 1A2.

For `COc1c(N2C[C@@H]3CCCN[C@@H]3C2)c(F)cc2c(=O)c(C(=O)O)cn(C3CC3)c12` [moxifloxacin], the “log CFU reduction in the lungs compared to the control group” value in the data set on M. tuberculosis H37Rv amounted to 3.9 log CFU.

Values taken from article PMC10873626, “Acceleration of infectious disease drug discovery and development using a humanized model of drug metabolism” (Proceedings of the National Academy of Sciences of the …, 2024).
